# Data: US20250295646A1, “METHODS OF USE OF T-TYPE CALCIUM CHANNEL MODULATORS” (Praxis Precision Medicines, Inc., priority 2022, published 2025)
# Columns and labels:
# [1] = test system: adult patients with essential tremor; assay: Example 16: Clinical Global Impression (CGI-I, CGI-S); format: in vivo, human; settings: for participants with CGI-I much improved / participants with CGI-I score reflecting no change in symptoms: Part B OLT
# Description: Patients were scheduled for Safety Follow-up on Day 70 (±1 day) in the clinic for the final clinical trial assessment.
# [2] = Within-participant escalating dose trial Part A (5-20 mg): pharmacokinetics; format: in vivo, human; settings: single 5 mg dose, healthy volunteers
# Method: In Part A, an open label trial was conducted.
# clinical = settings: both, human, plasma, oral, 120 mg
# Method: Each participant completed 3 study periods: Screening, Treatment period (12 or 31 days), and Safety follow-up.
# Participants were healthy males and females between the ages of 18 and 55 years old.
# In Part B, a randomized controlled trial was conducted.
# [3] = Phase 1 SAD/MAD safety and tolerability of formulation 3; format: in vivo, human; settings: single 60 mg without titration, 6 healthy volunteers
# Method: This was a 2-part, Phase 1 double blind, placebo controlled trial to assess the safety, tolerability, pharmacokinetics, and pharmacodynamics (including the KSS, the KDT, the SQSQ and 24-hour EEG recordings), of single, ascending (Part A: 20, 40, and 60 mg) and multiple, ascending (Part B: 20 and 40 mg for 8 days) doses of the 20 mg tablet (formulation 3) in healthy participants. […] Variability in Cmax and AUC increased with increasing dose following a single oral dose of the 20 mg tablet formulation (formulation 3) (FIG. 16).
# Adverse events for the doses of 20 and 40 mg were transient and occurred at a rate similar to placebo. The following TEAEs were observed, all of which were mild to moderate: […]
# [4] = test system: sigma band EEG power during NREM sleep; assay: EEG/PSG: sigma band EEG power during NREM sleep; format: in vivo, human; settings: 20 mg tablet and 40 mg tablet (FIG. 12)
# gamma band EEG power = assay: qEEG: eyes open / eyes closed gamma band power; format: in vivo, human; settings: Part B, beginning at 60 mg through 120 mg
# Description: It appears a maximal effect in gamma reduction was not achieved.
# The eyes open (EO) and eyes closed (EC) gamma absolute power for each individual was also estimated at specific time points across the study days.
# The population PK model was used to generate Cave for NREM sigma absolute power and concentrations for EO and EC gamma absolute power. For NREM sigma absolute power, the Cave was computed for the final day of each dose level over the EEG collection interval. For EO and EC gamma absolute power, concentrations at 4 hours post-dose and 23.75 hours post-dose were generated on the final day of each dose level. The final population PKPD models for NREM sigma absolute power and EO and EC gamma absolute power were then used to generate corresponding EEG responses.
# hCav3.3 = biological target: T1, hCav3.3 (Homo sapiens, UniProt Q9P0X4); assay: PatchXpress patch clamp, voltage dependent block (half-inactivated state); format: cell-based
# T1 construct: expressed in transfected cells; host or cells: HEK-293
# T1 sequence (Q9P0X4 whole entry): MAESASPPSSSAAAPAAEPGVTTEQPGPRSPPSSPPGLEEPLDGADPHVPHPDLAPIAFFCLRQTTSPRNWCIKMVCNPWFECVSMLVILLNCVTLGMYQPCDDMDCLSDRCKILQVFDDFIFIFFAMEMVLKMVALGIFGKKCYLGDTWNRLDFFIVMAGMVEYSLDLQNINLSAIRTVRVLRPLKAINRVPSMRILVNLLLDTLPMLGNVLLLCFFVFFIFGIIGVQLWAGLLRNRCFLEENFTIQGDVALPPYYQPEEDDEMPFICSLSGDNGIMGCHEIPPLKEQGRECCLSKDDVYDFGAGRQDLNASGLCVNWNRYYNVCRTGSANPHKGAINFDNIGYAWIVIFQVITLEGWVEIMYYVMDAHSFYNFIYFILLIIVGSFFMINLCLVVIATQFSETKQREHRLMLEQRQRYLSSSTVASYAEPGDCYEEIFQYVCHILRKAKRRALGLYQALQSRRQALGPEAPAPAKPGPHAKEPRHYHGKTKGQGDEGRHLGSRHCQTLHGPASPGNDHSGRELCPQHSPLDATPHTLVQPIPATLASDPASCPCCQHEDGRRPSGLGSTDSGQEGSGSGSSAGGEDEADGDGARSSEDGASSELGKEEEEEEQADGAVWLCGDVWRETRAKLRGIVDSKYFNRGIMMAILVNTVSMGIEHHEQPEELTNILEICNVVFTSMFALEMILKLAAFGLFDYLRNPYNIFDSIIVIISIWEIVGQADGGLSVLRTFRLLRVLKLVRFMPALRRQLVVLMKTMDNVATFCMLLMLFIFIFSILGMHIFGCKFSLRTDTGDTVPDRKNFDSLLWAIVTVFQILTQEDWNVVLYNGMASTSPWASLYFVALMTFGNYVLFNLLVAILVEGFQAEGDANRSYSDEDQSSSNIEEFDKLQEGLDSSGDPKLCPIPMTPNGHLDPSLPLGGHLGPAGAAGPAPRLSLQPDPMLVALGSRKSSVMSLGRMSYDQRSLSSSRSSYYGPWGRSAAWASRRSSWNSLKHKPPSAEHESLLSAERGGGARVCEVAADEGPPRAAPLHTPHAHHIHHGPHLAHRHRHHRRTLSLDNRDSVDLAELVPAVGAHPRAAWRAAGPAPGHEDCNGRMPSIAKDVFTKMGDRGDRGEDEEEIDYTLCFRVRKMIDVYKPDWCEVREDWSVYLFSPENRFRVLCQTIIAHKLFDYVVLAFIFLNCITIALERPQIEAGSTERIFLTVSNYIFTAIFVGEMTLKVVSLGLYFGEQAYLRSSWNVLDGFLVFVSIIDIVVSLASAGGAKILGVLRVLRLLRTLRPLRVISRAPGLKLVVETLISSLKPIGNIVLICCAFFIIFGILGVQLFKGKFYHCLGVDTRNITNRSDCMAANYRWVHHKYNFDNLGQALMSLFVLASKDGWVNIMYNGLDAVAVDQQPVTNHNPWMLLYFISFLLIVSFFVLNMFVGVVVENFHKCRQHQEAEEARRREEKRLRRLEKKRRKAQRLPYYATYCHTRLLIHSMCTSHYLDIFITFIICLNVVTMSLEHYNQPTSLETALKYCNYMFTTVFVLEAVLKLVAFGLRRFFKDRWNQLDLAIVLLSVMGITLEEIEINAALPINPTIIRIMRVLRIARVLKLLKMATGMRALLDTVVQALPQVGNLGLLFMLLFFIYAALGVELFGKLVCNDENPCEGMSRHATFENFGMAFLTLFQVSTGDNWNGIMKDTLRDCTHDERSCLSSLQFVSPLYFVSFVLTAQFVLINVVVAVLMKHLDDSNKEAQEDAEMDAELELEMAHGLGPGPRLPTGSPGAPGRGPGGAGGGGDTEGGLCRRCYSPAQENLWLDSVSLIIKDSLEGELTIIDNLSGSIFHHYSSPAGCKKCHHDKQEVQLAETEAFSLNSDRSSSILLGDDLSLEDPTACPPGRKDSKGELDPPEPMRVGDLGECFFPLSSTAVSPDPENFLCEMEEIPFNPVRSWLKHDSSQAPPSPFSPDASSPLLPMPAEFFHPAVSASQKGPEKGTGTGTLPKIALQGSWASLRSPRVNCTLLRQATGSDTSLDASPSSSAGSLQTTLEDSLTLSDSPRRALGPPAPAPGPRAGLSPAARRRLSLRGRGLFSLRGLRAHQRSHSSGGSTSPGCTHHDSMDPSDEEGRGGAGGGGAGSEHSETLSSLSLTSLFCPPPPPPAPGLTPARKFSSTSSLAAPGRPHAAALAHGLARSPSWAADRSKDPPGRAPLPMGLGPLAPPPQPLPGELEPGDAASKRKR
# [5] = Part B RWD (RWAS), Day 56, n 6, change from randomization baseline
# [6] = Part B RWD (RWAS), Day 70, n 5, change from randomization baseline
structure (smiles),measurement,setting,value
"CC(C)(C)NC(=O)CN1CCC(CNC(=O)c2cc(F)cc(Cl)c2)CC1 [compound of formula (I), N-((1-(2-(tert-butylamino)-2-oxoethyl)piperidin-4-yl)methyl)-3-chloro-5-fluorobenzamide]",CGI-I Score 0 not assessed,"[1]; Part A (FAS), Day 7, n 6",0 n (%)
same,CGI-I Score 1 very much improved,"[1]; Part A (FAS), Day 7, n 6",0 n (%)
same,CGI-I Score 2 Much improved,"[1]; Part A (FAS), Day 7, n 6",1 n (%)
same,CGI-I Score 3 minimally improved,"[1]; Part A (FAS), Day 7, n 6",1 (16.7) n (%)
same,CGI-I Score 4 no change,"[1]; Part A (FAS), Day 7, n 6",4 (66.7) n (%)
same,CGI-I Score 5 minimally worse,"[1]; Part A (FAS), Day 7, n 6",0 n (%)
same,CGI-I Score 6 much worse,"[1]; Part A (FAS), Day 7, n 6",0 n (%)
same,CGI-I Score 7 very much worse,"[1]; Part A (FAS), Day 7, n 6",0 n (%)
same,CGI-I Score 0 not assessed,"[1]; Part A (FAS), Day 14, n 6",0 n (%)
same,CGI-I Score 1 very much improved,"[1]; Part A (FAS), Day 14, n 6",0 n (%)
same,CGI-I Score 2 Much improved,"[1]; Part A (FAS), Day 14, n 6",1 n (%)
same,CGI-I Score 3 minimally improved,"[1]; Part A (FAS), Day 14, n 6",5 (83.3) n (%)
same,CGI-I Score 4 no change,"[1]; Part A (FAS), Day 14, n 6",0 n (%)
same,CGI-I Score 5 minimally worse,"[1]; Part A (FAS), Day 14, n 6",0 n (%)
same,CGI-I Score 6 much worse,"[1]; Part A (FAS), Day 14, n 6",0 n (%)
same,CGI-I Score 7 very much worse,"[1]; Part A (FAS), Day 14, n 6",0 n (%)
same,participants with CGI-I score not changed relative to pre-dose baseline,"[1]; Part A, Day 7",66.7%
same,participants with CGI score minimally improved,"[1]; Part A, Day 14",83.3%
same,participants with CGI score much improved,"[1]; Part A, Day 14",16.7%
same,CGI-I Score 0 not assessed,"[1]; Part B OLT (FAS), Day 7, n 12",1 (8.3) n (%)
same,CGI-I Score 1 very much improved,"[1]; Part B OLT (FAS), Day 7, n 12",0 n (%)
same,CGI-I Score 2 Much improved,"[1]; Part B OLT (FAS), Day 7, n 12",1 n (%)
same,CGI-I Score 3 minimally improved,"[1]; Part B OLT (FAS), Day 7, n 12",5 (41.7) n (%)
same,CGI-I Score 4 no change,"[1]; Part B OLT (FAS), Day 7, n 12",4 (33.3) n (%)
same,CGI-I Score 5 minimally worse,"[1]; Part B OLT (FAS), Day 7, n 12",1 (8.3) n (%)
same,CGI-I Score 6 much worse,"[1]; Part B OLT (FAS), Day 7, n 12",0 n (%)
same,CGI-I Score 7 very much worse,"[1]; Part B OLT (FAS), Day 7, n 12",0 n (%)
same,CGI-I Score 0 not assessed,"[1]; Part B OLT (FAS), Day 21, n 12",0 n (%)
same,CGI-I Score 1 very much improved,"[1]; Part B OLT (FAS), Day 21, n 12",1 (8.3) n (%)
same,CGI-I Score 2 Much improved,"[1]; Part B OLT (FAS), Day 21, n 12",1 n (%)
same,CGI-I Score 3 minimally improved,"[1]; Part B OLT (FAS), Day 21, n 12",5 (41.7) n (%)
same,CGI-I Score 4 no change,"[1]; Part B OLT (FAS), Day 21, n 12",5 (41.7) n (%)
same,CGI-I Score 5 minimally worse,"[1]; Part B OLT (FAS), Day 21, n 12",0 n (%)
same,CGI-I Score 6 much worse,"[1]; Part B OLT (FAS), Day 21, n 12",0 n (%)
same,CGI-I Score 7 very much worse,"[1]; Part B OLT (FAS), Day 21, n 12",0 n (%)
same,CGI-I Score 0 not assessed,"[1]; Part B OLT (FAS), Day 42, n 11",0 n (%)
same,CGI-I Score 1 very much improved,"[1]; Part B OLT (FAS), Day 42, n 11",0 n (%)
same,CGI-I Score 2 Much improved,"[1]; Part B OLT (FAS), Day 42, n 11",4 n (%)
same,CGI-I Score 3 minimally improved,"[1]; Part B OLT (FAS), Day 42, n 11",4 (36.4) n (%)
same,CGI-I Score 4 no change,"[1]; Part B OLT (FAS), Day 42, n 11",3 (27.3) n (%)
same,CGI-I Score 5 minimally worse,"[1]; Part B OLT (FAS), Day 42, n 11",0 n (%)
same,CGI-I Score 6 much worse,"[1]; Part B OLT (FAS), Day 42, n 11",0 n (%)
same,CGI-I Score 7 very much worse,"[1]; Part B OLT (FAS), Day 42, n 11",0 n (%)
same,participants with CGI-I much improved,[1]; Day 7,8.3%
same,participants with CGI-I score reflecting no change in symptoms,[1]; Day 7,33.3%
same,participants with CGI-I much improved,[1]; Day 42,36.4%
same,participants with CGI-I score reflecting no change in symptoms,[1]; Day 42,27.3%
same,CGI-I Score 0 not assessed,[1]; [5],0 n (%)
same,CGI-I Score 1 very much improved,[1]; [5],0 n (%)
same,CGI-I Score 2 Much improved,[1]; [5],0 n (%)
same,CGI-I Score 3 minimally improved,[1]; [5],1 (16.7) n (%)
same,CGI-I Score 4 no change,[1]; [5],5 (83.3) n (%)
same,CGI-I Score 5 minimally worse,[1]; [5],0 n (%)
same,CGI-I Score 6 much worse,[1]; [5],0 n (%)
same,CGI-I Score 7 very much worse,[1]; [5],0 n (%)
same,CGI-I Score 0 not assessed,[1]; [6],0 n (%)
same,CGI-I Score 1 very much improved,[1]; [6],0 n (%)
same,CGI-I Score 2 Much improved,[1]; [6],0 n (%)
same,CGI-I Score 3 minimally improved,[1]; [6],0 n (%)
same,CGI-I Score 4 no change,[1]; [6],4 (80.0) n (%)
same,CGI-I Score 5 minimally worse,[1]; [6],1 (20.0) n (%)
same,CGI-I Score 6 much worse,[1]; [6],0 n (%)
same,CGI-I Score 7 very much worse,[1]; [6],0 n (%)
same,time by which plasma concentrations were quantifiable,[2],≤ 0.50 h
same,AUC,clinical,≥ 4.65 µg·h/mL
same,Cmax,clinical,≥ 0.39 µg/mL
same,tolerability,[3],not tolerated
"CC(C)(C)NC(=O)CN1CCC(CNC(=O)c2cc(F)cc(Cl)c2)CC1.Cl [compound of formula (II), N-((1-(2-(tert-butylamino)-2-oxoethyl)piperidin-4-yl)methyl)-3-chloro-5-fluorobenzamide hydrochloride]",NREM sigma band compared to placebo control,[4],decrease
same,gamma band EEG power,gamma band EEG power,dose-related reduction
same,tonic block/voltage dependent block (TB/VDB) ratio,hCav3.3,4.0
